Source: patent US9988407B2, “Prodrugs of prostate specific membrane antigen (PSMA) inhibitor” (THE JOHNS HOPKINS UNIVERSITY, priority 2014, dated 2018)
“Also recorded” adds a separate entry of the source.

Experiments:
[1] = PK of JAM0388 after oral gavage, 2-PMPA in brain and plasma; format: in vivo; conditions: 30 mg/kg equivalent of 2-PMPA by oral gavage
[2] = In vivo pharmacokinetics in mice, peroral, bioanalysis method 2 (2-PMPA release); conditions: mouse, in vivo
Procedure: Blood was obtained via cardiac puncture and tissue dissected at 0 min, 15 min, 30 min, 1 h, 2 h, and 4 h post dose (n=3 per time point). Single time point studies were conducted at 30 min (N=3) following dosing. Plasma was harvested from blood by centrifugation. Mean concentration-time data was used for pharmacokinetic (PK) analysis. Non-compartmental-analysis module in WinNonlin® (version 5.3) was used to assess pharmacokinetic parameters. Peak plasma concentrations (Cmax) and time to Cmax (Tmax) were the observed values. Area under the curve (AUC) was calculated by log-linear (p.o.) trapezoidal rule to the end of sample collection (AUClast) and extrapolated to infinity (AUC0-∞) by dividing the last quantifiable concentration by the terminal disposition rate constant (ke). […] The tissues were stored in −20° C. for 1 h and then homogenized. The calibration curve for the tissues was developed using naïve mouse brains from untreated animals as a matrix. For sciatic nerve, the nerves were weighed and homogenized in 50 μL methanol and the calibration curve was developed using naïve sciatic nerves from untreated animals as a matrix. The samples were vortexed and centrifuged. […] Supernatant was dried under a gentle stream of nitrogen at 45° C. and the residue reconstituted with 75 μL of acetonitrile and vortexed. 25 μL of derivatizing agent N-tert-Butyldimethysilyl-N-methyltrifluoro-acetamide (MTBSTFA) was added to microcentrifuge tubes, vortexed, and heated at ˜60 OC for 40 min. At the end of 40 min, the derivatized samples ˜75 μL were transferred to a 250 μL polypropylene vials and were analyzed via LC/MS/MS. Chromatographic analysis was performed using an Accela™ ultra high-performance system consisting of an analytical pump, and an autosampler coupled with TSQ Vantage mass spectrometer (Thermo Fisher Scientific Inc., Waltham Mass.). […] The total run time for each analyte was 5.0 min. Chromatographic analysis will be performed on Accela UPLC.

[3] = In vitro metabolic stability screen in plasma and liver subcellular fractions (results in words); format: in vitro ADME; conditions: 60 min incubation
Procedure: (§1) For metabolic stability, plasma (mouse, dog, monkey and human) and liver microsomes (mouse, dog, monkey and human) were used. For stability, prodrugs (10 μM) were spiked in each matrix and incubated in an orbital shaker at 37° C. At predetermined times (0, 30 and 60 min), 100 μL aliquots of the mixture in triplicate were removed and the reaction quenched by addition of three times the volume of ice cold acetonitrile spiked with the internal standard (losartan 5 μM). The samples were vortexed for 30 s and centrifuged 12000 g for 10 min. 50 μL supernatant diluted with 50 μL water was transferred to a 250 μL polypropylene vial sealed with a Teflon cap. Prodrug disappearance was monitored over time using a liquid chromatography and tandem mass spectrometry (LC/MS/MS) method as described below.
(§2) For LC/MS/MS, prodrugs were separated with Thermo Scientific Accela UPLC system coupled to Accela open autosampler on an Agilent C18 (100×2.1 mm id) UPLC column. The autosampler was temperature controlled and operating at 10° C. The mobile phase used for the chromatographic separation was composed of acetonitrile/water containing 0.1% formic acid and was run at a flow rate of 0.5 mL/minute for 4.5 minutes using gradient elution. The column effluent was monitored using TSQ Vantage triple-quadrupole mass spectrometric detector, equipped with an electrospray probe set in the positive ionization mode. Samples were introduced into the ionization source through a heated nebulized probe (350° C.).
For quantification of compound remaining, disappearance of prodrugs was measured from ratio of peak areas of analyte to IS. Percentage remaining was calculated in the following manner:
In general, the prodrugs were screened by an in vitro metabolic stability screen, and if positive, followed by an in vivo single time point pharmacokinetic study, and in select cases, an in vivo full time course pharmacokinetic study (FIG. 3). In this Example, the four acidic functional groups in 2-PMPA were systematically capped. The carboxylic acids were first masked with simple alkyl esters (Compounds 1, 2, and 3). In vitro chemical and metabolic stability of the prodrugs then were conducted, following 60 min incubation in plasma stability screens for prodrugs.

[4] = Metabolic stability in mouse plasma; format: in vitro ADME; conditions: 10 μM, 37° C.
Procedure: as §1, §2
(§3) For quantification of compound remaining, disappearance of prodrugs was measured from ratio of peak areas of analyte to IS. Percentage remaining was calculated in the following manner: […]

[5] = Metabolic stability in human plasma; format: in vitro ADME; conditions: 10 μM, 37° C.
Procedure: as §1, §2, §3

[6] = Metabolic stability in mouse liver S9; format: in vitro ADME; conditions: Mouse S9, 10 μM, 37° C.
[7] = Metabolic stability in human liver microsomes; format: in vitro ADME; conditions: 10 μM, 37° C.
Procedure: as §1, §2, §3

[8] = Metabolic stability in mouse liver microsomes; format: in vitro ADME; conditions: 10 μM, 37° C.
Procedure: as §1, §2, §3

[9] = In vivo pharmacokinetics in mice, peroral, bioanalysis method 1 (total prodrug exposure); conditions: mice, oral dosing
Procedure: Blood was obtained via cardiac puncture and tissue dissected at 0 min, 15 min, 30 min, 1 h, 2 h, and 4 h post dose (n=3 per time point). Single time point studies were conducted at 30 min (N=3) following dosing. Plasma was harvested from blood by centrifugation. Mean concentration-time data was used for pharmacokinetic (PK) analysis. Non-compartmental-analysis module in WinNonlin® (version 5.3) was used to assess pharmacokinetic parameters. Peak plasma concentrations (Cmax) and time to Cmax (Tmax) were the observed values. Area under the curve (AUC) was calculated by log-linear (p.o.) trapezoidal rule to the end of sample collection (AUClast) and extrapolated to infinity (AUC0-∞) by dividing the last quantifiable concentration by the terminal disposition rate constant (ke). Terminal half-life (t1/2) was estimated from first order kinetics: t1/2=0.693/ke.
Briefly, prior to extraction, frozen samples were thawed on ice. For plasma extraction, 50 μL of the calibration standards or samples were transferred into silanized microcentrifuge tubes. Sample preparation involved a single liquid extraction by addition of 300 μL of methanol as extraction solution with internal standard (i.e., 5 μM of 2-PMSA in methanol), followed by vortexing for 30 s and then centrifugation at 12000 g for 10 min. Supernatant was transferred (˜250 μL) and evaporated to dryness at 40° C. under a gentle stream of nitrogen. The residue was reconstituted with 100 μL of derivatizing agent, n-butanol with 3N HCl, and samples were vortexed. The samples were heated at ˜60 OC in a shaking water bath for 30 min. At the end of 30 min, the derivatized samples were allowed to cool at room temperature and dried again for removal of derivatizing reagent, under a gentle stream of nitrogen. The residue was reconstituted in 100 μL of 30% acetonitrile in water v/v. The samples were vortexed and centrifuged again. ˜80 μL supernatant was transferred to a 250 μL polypropylene vial sealed with a Teflon cap and a volume of 10 μL was injected onto the ultra-performance liquid chromatography (UPLC) instrument for quantitative analysis. Chromatographic analysis was performed using an Accela™ ultra high-performance system consisting of an analytical pump, and an autosampler coupled with TSQ Vantage mass spectrometer (Thermo Fisher Scientific Inc., Waltham Mass.). […] The mobile phase used was composed of 0.1% formic acid in acetonitrile and 0.1% formic acid in H2O with gradient elution, starting with 20% (organic) linearly increasing to 65% up to 2.5 min, maintaining at 65% (2.5-3.5 min) and reequilibrating to 30% by 5 min. The total run time for each analyte was 5.0 min.

[10] = cited from earlier work
[11] = tested on: EAE; conditions: cited from earlier work
[12] = tested on: DSS-induced colitis; experiment: DSS-induced murine model of colitis; format: in vivo, C57/B6 mice
Procedure: Disease activity index (DAI), which positively correlated with the disease severity, was used as a measure for clinical activity. * P<0.05;
(§4) To investigate whether PSMA can be a suitable novel therapeutic target for clinical intervention against IBD, the effect of PSMA prototype inhibitors on three most widely used murine models of IBD was tested, including DNBS-induced colitis, DSS-induced colitis, and IL-10 knockout (IL-10 KO) mice (a genetic model that develops spontaneous colitis). In all three models, PSMA inhibitor treatment dramatically ameliorated symptoms. […] The improvement of these prolapse-retracting mice was unequivocally obvious in that their body weight increased dramatically when compared to that of untreated control IL-10 KO mice (FIG. 21C).

[13] = tested on: spontaneous colitis in IL-10 KO mice; experiment: Spontaneous colitis in IL-10 knockout mice; format: in vivo, IL-10 KO mice (C57/B6)
Procedure: as §4

[14] = target: T1, PSMA (Mus musculus, UniProt O35409); experiment: PSMA activity in colonic or cecal mucosa of DSS-treated mice; format: in vivo; conditions: DSS-induced colitis, mucosa extract
T1 construct: from tissue; host or cells: colonic or cecal mucosa of C57/B6 mice with DSS-induced colitis
Procedure: PSMA activity was measured using extract from mucosa;
as §4

T1 sequence (O35409 whole entry): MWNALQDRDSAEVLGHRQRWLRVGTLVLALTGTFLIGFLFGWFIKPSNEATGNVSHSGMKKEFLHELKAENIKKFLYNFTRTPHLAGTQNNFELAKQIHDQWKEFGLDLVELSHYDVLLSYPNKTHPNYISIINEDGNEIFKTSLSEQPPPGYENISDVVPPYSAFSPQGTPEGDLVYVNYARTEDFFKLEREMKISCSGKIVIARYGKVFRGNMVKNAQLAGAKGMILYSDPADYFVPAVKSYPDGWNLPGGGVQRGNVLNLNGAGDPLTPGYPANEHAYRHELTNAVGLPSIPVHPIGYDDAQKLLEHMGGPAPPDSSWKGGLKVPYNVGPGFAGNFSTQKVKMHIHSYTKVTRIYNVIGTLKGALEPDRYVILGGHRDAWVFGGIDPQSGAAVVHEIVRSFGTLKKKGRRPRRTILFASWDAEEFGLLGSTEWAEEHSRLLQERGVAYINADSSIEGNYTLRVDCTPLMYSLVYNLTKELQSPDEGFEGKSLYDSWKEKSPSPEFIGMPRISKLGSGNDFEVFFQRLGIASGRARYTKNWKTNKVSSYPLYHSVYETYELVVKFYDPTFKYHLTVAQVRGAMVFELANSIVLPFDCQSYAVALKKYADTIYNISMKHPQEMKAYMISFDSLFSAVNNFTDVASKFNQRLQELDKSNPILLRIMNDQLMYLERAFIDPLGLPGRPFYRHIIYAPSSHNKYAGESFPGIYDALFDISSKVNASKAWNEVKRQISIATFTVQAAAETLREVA

## 4-((diphenoxyphosphoryl)methyl)-5-(((isopropoxycarbonyl)oxy)methoxy)-5-oxopentanoic acid [Compound 30]
[1]; brain at 30 min and 5 h
  brain levels of 2-PMPA: low at both time points
[1]; plasma at 30 min and 5 h
  release of 2-PMPA in plasma: excellent release of 2-PMPA in plasma

## CCOC(=O)CCC(CP(=O)(O)O)C(=O)OCC (centres unmarked) [Compound 2, [5-Ethoxy-2-(ethoxycarbonyl)-5-oxopentyl]phosphonic acid]
[2]
  stability of carboxylic esters in vivo: too stable in vivo
[3]
  in vitro metabolic stability: too stable
[4]; 0 min
  Percentage remaining: 100%
[4]; 30 min
  Percentage remaining: 99%
[4]; 60 min
  Percentage remaining: 83%
[5]; 0 min
  Percentage remaining: 100%
[5]; 30 min
  Percentage remaining: 81%
[5]; 60 min
  Percentage remaining: 59%
[6]; 0 min
  Percentage remaining: 100%
[6]; 30 min
  Percentage remaining: 103%
[6]; 60 min
  Percentage remaining: 103%
[7]; 0 min
  Percentage remaining: 100%
[7]; 30 min
  Percentage remaining: 88%
[7]; 60 min
  Percentage remaining: 73%
[8]; 0 min
  Percentage remaining: 100%
[8]; 30 min
  Percentage remaining: 99%
[8]; 60 min
  Percentage remaining: 88%
[9]
  permeability in vivo: showed the most permeability

## O=C(O)CCC(CP(=O)(O)O)C(=O)O (centres unmarked) [Compound 2-PMPA, 2-phosponomethyl pentanedioic acid]
[10]; 2-PMPA itself
  oral availability F: < 1%
[10]; after 50-100 mg/kg intraperitoneal injection (i.p.) doses
  concentrations in the brain: 30 to 50 µM
[11]; EAE mice, Barnes maze
  cognitive function: improves cognitive function; also recorded: cognition was significantly improved
[11]; EAE mice, post mortem analysis
  brain NAAG: elevates NAAG; also recorded: significant increase in brain NAAG
[11]; EAE mice
  physical severity of EAE: no difference in physical severity was observed
[11]; EAE+2-PMPA vs EAE+Vehicle
  fear conditioning, fear memory: significant difference between fear memory
[12]; 1, 10, and 100 mg/kg i.p., murine IBD models
  dose response: dose dependent effect with 100 mg/kg provided the most benefit
[12]; i.p. administration at 100 mg/kg, DSS model
  efficacy: excellent efficacy
[13]; 100 mg/kg for 2 weeks
  disease severity (macroscopic disease, prolapse), words: not only improvement of disease but even retraction of prolapse; also recorded: significantly reduced the disease severity
[13]; 2 of the 20 mice
  complete retraction of prolapse, share of treated mice: 10%
[13]; i.p. administration at 100 mg/kg, IL 10 knock out model
  efficacy: excellent efficacy
[14]
  PSMA activity in colonic or cecal mucosa: effectively suppresses PSMA activity
